Data set [1] deals with T1, ALT (human liver) (Homo sapiens, UniProt P24298).
T1 construct: ALT (human liver) and lactate dehydrogenase (LDH) were obtained from Lee Biosolutions, Inc; purchased Lee Biosolutions, Inc. (St. Louis, Missouri); host or cells: human liver
T1 sequence (P24298 2-496 limits assumed): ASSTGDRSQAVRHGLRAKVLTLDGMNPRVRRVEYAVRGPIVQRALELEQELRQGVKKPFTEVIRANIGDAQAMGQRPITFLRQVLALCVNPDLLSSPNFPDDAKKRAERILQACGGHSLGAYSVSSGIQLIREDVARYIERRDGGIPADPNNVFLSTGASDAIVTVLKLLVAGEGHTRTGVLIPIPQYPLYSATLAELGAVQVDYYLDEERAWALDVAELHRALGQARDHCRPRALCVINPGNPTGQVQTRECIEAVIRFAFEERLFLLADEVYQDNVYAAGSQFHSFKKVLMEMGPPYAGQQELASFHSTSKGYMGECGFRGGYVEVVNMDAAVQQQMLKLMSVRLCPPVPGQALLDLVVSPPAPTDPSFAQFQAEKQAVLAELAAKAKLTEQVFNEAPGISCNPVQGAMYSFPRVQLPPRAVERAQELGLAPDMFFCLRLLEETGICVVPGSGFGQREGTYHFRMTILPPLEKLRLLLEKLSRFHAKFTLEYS
The data set is described as follows: Biopanning of phage-displayed peptide library over immobilized ALT. Type of data set: binding. As to conditions: 12 phage clones after fifth round of biopanning against ALT. The procedure: ALT (2.6 µg/mL) was dissolved in NaHCO3 buffer (100 mM, pH 8.3) and transferred to the wells of polystyrene microplates. After overnight incubation with mild agitation at 4°C, the well surfaces were coated with ALT. The well surfaces were then blocked with blocking buffer (0.1 M NaHCO3 containing 2% BSA and 0.02% of NaN3) for 1 hr at 4°C, and washed 6 times with TBST (50 mM Tris-HCl pH 7.5, 150 mM NaCl, 0.1% Tween 20) to remove weakly bound ALT. […] Wells were washed 10 times with TBST to remove unbound phage. The bound phage were eluted with 100 µL of 0.2 M glycine-HCl (pH 2.2) and the elution was immediately neutralized with 15 µL Tris-HCl (1 M, pH 9.1) to prevent phage killing. The eluted phage were amplified in E. coli ER2738 and the phage were harvested by precipitation with NaCl/polyethylene glycol (20% (w/v) polyethylene glycol-8000 with 2.5 M NaCl). This biopanning process was repeated for five rounds. The concentration of Tween 20 in the washing step was increased from 0.1% in the first round of panning to 0.3% in the second round of panning and 0.5% in the final three rounds of panning. After each round of panning, the phage were titered using Luria-Bertani (LB) broth plates containing isopropyl β-D-thiogalactopyranoside (IPTG) and X-gal. After the fifth round of selection, twelve blue monocolonies were randomly picked and amplified for DNA sequencing.

The target in data set [2] is T1, ALT (human liver). The data set is described as follows: ELISA for phage clone binding to immobilized ALT. As to conditions: 10^5 to 10^11 pfu, triplicate, 405 nm, 1 hr room temperature. As to the method:
To test whether or not the selected phage clones from the biopanning procedure could bind to ALT, ELISA assays were performed. Microplates were coated with ALT (2.6 µg/mL) overnight at 4°C, blocked with blocking buffer, and washed 6 times with TBST solution (containing 0.1% Tween 20). Varying amounts of amplified phage clones were added to each well and incubated for 1 hr at room temperature. After washing, HRP-conjugated anti-M13 monoclonal antibody (diluted 1∶5000 in blocking buffer) was added and incubated at room temperature for 1 hr. Following incubation and washing again with the same buffer, ABTS and H2O2 (30%, v/v) were added and the absorbance was measured after a 1 hr incubation with mild agitation at 405 nm with a microplate spectrophotometer (Molecular Devices, Sunnyvale, CA).
In order to estimate the apparent dissociation constant for the ALT5-8 clone, further ELISA experiments were performed with extended phage concentrations. The data were fit to a Langmuir isotherm using non-linear regression (SigmaPlot, San Jose, CA) and the Kd,app was determined.

Data set [3] has as its target T1, ALT (human liver). Description: Coupled enzyme assay (ALT/LDH, NADH depletion): peptide inhibition of ALT, bi-bi ping-pong fit with competitive inhibitor. The format is biochemical. The procedure:
ALT enzyme kinetics were measured to determine the impact of the ALT5-8 peptide on the activity of the enzyme. Kinetic experiments were performed in a coupled assay where the pyruvate generated by ALT was reduced to lactate by LDH with the concomitant oxidation of NADH. The depletion of NADH was monitored by following its absorbance at 340 nm in UV-transparent microplates. […] The reactions were initiated by the addition of 330 U/L ALT and all measurements were made in triplicate. All stock solutions were prepared in 100 mM Tris-HCl buffer (pH 7.8), and all kinetic trials were conducted 300 µL at 37 °C. […] Free ALT5-8 peptide inhibitor (I) was added to the reactions at concentrations from 0–0.25 µM.

For data set [4], the target named is T1, ALT (human liver). Description: EIS detection of ALT with peptide-modified gold electrode. Type of data set: binding. The following applies: biosensor made from the peptide coupled with EIS detection. The procedure:
All electrochemical measurements were performed with a µAUTOLAB potentiostat (Type III, FRA2, Metrohm Autolab, Netherlands). A gold wire (dia. 1 mm) sealed in epoxy was used as a working electrode and a platinum mesh was used as a counter electrode. All potentials measured are reported versus a Ag/AgCl reference electrode. Both cyclic voltammetry and EIS measurements were conducted in a solution of 1 mM ferro/ferricyanide in 0.1 M sodium perchlorate.
CV and EIS were performed as previously described. Briefly, the gold electrodes were prepared in 0.1 mM peptide solution for 1 hr, followed by backfilling in 1 mM cysteine solution for 2 hr to obtain a Au-Pep-Cys electrode. The Au-Pep-Cys electrodes were incubated in ALT solution for 1 hr before CV and EIS measurements. After each electrode preparation step, the electrode is removed and placed into solutions of 1 mM ferro/ferricyanide in 0.1 M NaClO4for analysis. Therefore, all the electrochemical measurements were conducted in the ferro/ferricyanide solution which eliminates the effect of any potential viscosity differences between the sample solutions. CV experiments were performed at a potential scan rate of 100 mV/s. Impedance spectra were recorded over a frequency range of 0.1–10^5 Hz. […] The impedance was recorded and a Nyquist plot was obtained. […]

The target in data set [5] is T1, ALT (human liver). The data set is described as follows: QCM binding of ALT to immobilized peptide. As to conditions: ALT as compared to BSA and SA, 10 µg/mL each. From the text:
All reagents used were analytical grade or higher unless otherwise stated. Escherichia coli strain ER2738, a host for M13 phage, and a polyvalent M13 phage display kit (Ph.D.-12) which contained random 12-mer peptides were obtained from New England Biolabs (Ipswich, MA). ALT (human liver) and lactate dehydrogenase (LDH) were obtained from Lee Biosolutions, Inc. (St. Louis, Missouri). Horseradish peroxidase (HRP) conjugated anti-M13 monoclonal antibody was from GE Healthcare (Piscataway, NJ). Tween 20, 2,2′-Azino-bis(3-ethylbenzothiazoline-6-sulfonic acid) diammonium salt (ABTS), streptavidin (SA) from Streptomyces avidinii, bovine serum albumin (BSA), L-cysteine hydrochloride (98%) and all other chemicals were purchased from Sigma-Aldrich (St. Louis, MO). Polystyrene microplates were from Pierce Biotechnology (Rockford, IL). The ALT5-8 peptide modified with a C-terminal cysteine (sequence: […]) was synthesized (>90% purity) by Genscript (Piscataway, NJ). Quartz crystals (AT-cut, 5 MHz) with Au deposited on both sides were obtained from Inficon (East Syracuse, New York). Buffer solutions (pH = 7.3) containing 0.01 M sodium phosphate and 0.1 M NaCl were used to make all protein (1–10 µg/mL) and peptide (0.1 mM) solutions for the QCM and EIS measurements. All solutions were prepared using Milli-Q water. […]

Data set [6] has as its target T1, ALT (human liver). The data set is described as follows: Uninhibited ALT enzyme kinetics (coupled ALT/LDH assay). Type of data set: biochemical. As to conditions: absence of peptide, pH 7.8, 37 °C, triplicate, bi-bi ping-pong fit (Eqn. 1). As to the method: ALT enzyme kinetics were measured to determine the impact of the ALT5-8 peptide on the activity of the enzyme. Kinetic experiments were performed in a coupled assay where the pyruvate generated by ALT was reduced to lactate by LDH with the concomitant oxidation of NADH. The depletion of NADH was monitored by following its absorbance at 340 nm in UV-transparent microplates. […] Initial concentrations of pyridoxal 5′-phosphate, NADH, and LDH were 0.1 mM, 0.25 mM and 47 U/L respectively. The reactions were initiated by the addition of 330 U/L ALT and all measurements were made in triplicate. All stock solutions were prepared in 100 mM Tris-HCl buffer (pH 7.8), and all kinetic trials were conducted 300 µL at 37 °C.

Data set [7] deals with T2, alanine aminotransferase (Homo sapiens, UniProt P24298).
T2 chain: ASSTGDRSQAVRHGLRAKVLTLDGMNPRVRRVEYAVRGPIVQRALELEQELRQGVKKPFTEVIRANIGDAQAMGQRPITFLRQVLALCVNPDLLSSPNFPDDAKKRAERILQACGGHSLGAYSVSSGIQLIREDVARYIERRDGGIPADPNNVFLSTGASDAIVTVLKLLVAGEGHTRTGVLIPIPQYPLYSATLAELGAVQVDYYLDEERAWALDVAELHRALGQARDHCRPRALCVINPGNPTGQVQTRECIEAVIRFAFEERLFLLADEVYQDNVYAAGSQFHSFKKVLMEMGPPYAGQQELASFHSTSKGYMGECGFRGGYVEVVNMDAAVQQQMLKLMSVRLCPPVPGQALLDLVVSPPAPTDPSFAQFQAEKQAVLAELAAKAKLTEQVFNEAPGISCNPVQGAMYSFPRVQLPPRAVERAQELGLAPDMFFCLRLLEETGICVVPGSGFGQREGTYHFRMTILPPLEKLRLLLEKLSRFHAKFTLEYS
The data set is described as follows: enzyme inhibition kinetics.

Data set [8] deals with T2, alanine aminotransferase. The data set is described as follows: phage ELISA.
Substrate in data set [9]: C[C@H](N)C(=O)O
The data set is described as follows: purified protein, by the assay type. The following applies: other: substrate of ALT, absence of peptide, pH 7.8, 37 °C, triplicate, bi-bi ping-pong fit (Eqn. 1).

The target in data set [10] is T2, alanine aminotransferase. Description: QCM.

LETEWDSLWYAP [ALT5-9]: on ALT (human liver) [1], the “Frequency of sequence among sequenced clones” value (shortened to “Frequency”) is 1/12. For the same molecule, on ALT (human liver) [2], the “affinity of phage clone for immobilized ALT (in words)” value (“affinity of phage clone” for short) is on record as “low affinity for ALT similar to that of the M13 control phage”.

Turning to SNNLYPQRAVST [ALT4-3], at ALT (human liver) [1], the “Frequency” value is 1/12. The “affinity of phage clone” value on ALT (human liver) [2] is listed as “low affinity for ALT similar to that of the M13 control phage”.

For “WHWRNPDFWYLK [ALT5-8, 12-mer peptide selected by M13 phage display over ALT; tested on phage and as free peptide]”, the “Frequency” value on ALT (human liver) [1] is given as 10/12. On ALT (human liver) [2], the “affinity of phage clone” value is “dose-dependent affinity for the ALT protein”. Besides, the mode of inhibition result at ALT (human liver) [3] (Lineweaver-Burk plots, with respect to alanine) is on record as “competitive inhibitor”. Besides, the “residual enzyme activity with peptide (in words)” value on ALT (human liver) [3] (peptide to protein ratio 2∶1) is “the enzyme was still quite active”. Moreover, at ALT (human liver) [4], the “limit of detection (LOD), EIS” value was 0.092 µg/mL. Further, the “selectivity (in words)” value at ALT (human liver) [5] was “selective for ALT as compared to BSA and SA”.

In the case of α-ketoglutarate [reference compound], the Km on ALT (human liver) [6] (substrate of ALT, read-out: Michaelis constant KM) was 90 ± 30 µM.

In the data set with alanine aminotransferase [7], WHWRNPDFWYLK [ALT5-8 peptide] yielded a Ki of 71 nM.

Consider WHWRNPDFWYLK (displayed on M13 phage) [ALT5-8 peptide (phage-displayed)], for which the Kd with alanine aminotransferase [8] came out at 85 nM.

B1: ALT (human liver) (Homo sapiens) (protein)
chain: ASSTGDRSQAVRHGLRAKVLTLDGMNPRVRRVEYAVRGPIVQRALELEQELRQGVKKPFTEVIRANIGDAQAMGQRPITFLRQVLALCVNPDLLSSPNFPDDAKKRAERILQACGGHSLGAYSVSSGIQLIREDVARYIERRDGGIPADPNNVFLSTGASDAIVTVLKLLVAGEGHTRTGVLIPIPQYPLYSATLAELGAVQVDYYLDEERAWALDVAELHRALGQARDHCRPRALCVINPGNPTGQVQTRECIEAVIRFAFEERLFLLADEVYQDNVYAAGSQFHSFKKVLMEMGPPYAGQQELASFHSTSKGYMGECGFRGGYVEVVNMDAAVQQQMLKLMSVRLCPPVPGQALLDLVVSPPAPTDPSFAQFQAEKQAVLAELAAKAKLTEQVFNEAPGISCNPVQGAMYSFPRVQLPPRAVERAQELGLAPDMFFCLRLLEETGICVVPGSGFGQREGTYHFRMTILPPLEKLRLLLEKLSRFHAKFTLEYS
As for B1, in the data set with ALT (human liver) [6], the kcat came to 5.8 ± 0.2 s⁻¹. Further, the Km in data set [9] was 8000 ± 900 µM.

Consider WHWRNPDFWYLKC (immobilized on gold via C-terminal cysteine) [ALT5-8 peptide (C-terminal Cys)], for which the affinity in the data set with alanine aminotransferase [10], expressed as Kd, was 20.1 nM.

For the origin of these results see paper PMC3189179, “Rapid Development of New Protein Biosensors Utilizing Peptides Obtained via Phage Display” (PLoS ONE, 2011).
